Measured values as given in US11286256B2, “Bicyclic inhibitors of histone deacetylase” (Alkermes, Inc., priority 2017, dated 2022).
In brackets after ≈: the same amount, converted by molar mass.

Columns and labels:
[1] = Aqueous kinetic solubility measurement; format: physicochemical
Description: Compounds were evaluated for their kinetic solubility in buffer or water. Aliquots of 8 μL of reference and test compound stock solutions (10 mM in DMSO) were added into 792 μL of 100 mM phosphate buffer (0.1 M NaPO4, pH 7.4). Final DMSO concentration is 1%. The sample tubes were shaken for 1 hour (1000 rpm) at room temperature. A calibration curve was prepared using 300 μM spiking solution (SS) in MeOH/ACN(4:1) (SS=add 6 μL 10 mM compound in 194 μL MeOH/ACN(4:1)). Samples were centrifuged for 10 min (12000 rpm) to precipitate undissolved particles, and the supernatants were transferred to a new tube or plate. Supernatants were diluted 10 times and 100 times with 100 mM buffer. Samples were then prepared for analysis by LC-MS/MS (Add 5 μL of compound samples (not diluted, 10 times diluted and 100 times diluted) and standard curve samples to 95 μL of ACN containing internal standard. Internal standards used are Propranolol, Ketoconazole, and Tamoxifen.

[2] = system: dendritic spines of CA1 pyramidal neurons, dorsal hippocampus; assay: Dendritic spine morphology in dorsal hippocampus (CA1) after 14 days of oral treatment; format: in vivo, wild type mice (C57BL/6J); conditions: for Thin Spines (% increase over vehicle) / Total Spines (% increase over vehicle): 14 days, WT mice; for dendritic spine density (in words, earlier studies): Compound 2 at 1, 3, 6 and 20 mg/kg/day, Compound 1 at 10 mg/kg/day
Description: Compounds were evaluated to determine whether sub-chronic treatment could produce changes in dendritic spine morphology in the CA1 region of the dorsal hippocampus in wild type (WT) mice. Compounds were administered orally to wild type mice, daily for 14 days. Doses were chosen based on pharmacokinetic data, brain exposure, and potency. Effects of compounds treatments on dendritic spine morphology in the CA1 region of the dorsal hippocampus were then evaluated.
Male C57BL/6J mice (7-8-weeks old, n=7 per group) were dosed orally with Rodin compounds or vehicle (20% HPßCD) daily for 14 days. Doses for compounds were chosen based on exposure data from pharmacokinetic experiments. […] Mice were sacrificed 24 hours after the last dose, and underwent transcardial perfusion for preparation of brain samples.
Mice were anesthetized with chloral hydrate (4% chloral hydrate in saline, 10 ml/kg) before undergoing transcardial perfusion with 4% PFA in 1×PBS (pH7.4, room temperature) at 20 mL/min for 54 seconds. Immediately after the perfusion, mice were decapitated and their brain extracted. Brains were postfixed in scintillation vials containing 4% PFA (5-10 ml) for 4 min. Brains were sectioned using a tissue vibratome (Leica VT1000) to collect sections (300 μm thick) from the anterior to posterior extremes of each brain.
Superresolution laser-scanning confocal microscopy (Zeiss LSM880, Airyscan) was performed using a 63× objective (1.42 NA) to scan individually labeled neurons at high resolution (scan resolution=0.06 um μm/pixel; axial resolution=0.06 um μm/focal step). Target neurons were identified in the brain region of interest by epifluorescence navigation using anatomical location and cell morphology. Microscopy was performed blind to experimental conditions. A minimum of 7 mice were tested in each experimental condition. A minimum of 5 samples per mouse (range=5-6) were measured for each segment.
Blind deconvolution (AutoQuant) was applied to raw three-dimensional digital images which were then analyzed for spine density and morphology by trained analysts. Individual spines were measured manually for (a) head diameter, (b) length, and (c) neck thickness from image Z-stacks using custom-built Afraxis ESP software. Each dendrite was analyzed by 3 (on average) independent analysts. Automated image assignment software distributed images to analysts in a randomized manner and ensured that each analyst performed measurements of near equal numbers of dendrites per group. Analysts were blinded to all experimental conditions (including treatment, brain region, and cell type).
Each identified dendritic spine was measured for (a) spine length, (b) spine head diameter, and (c) neck width. Population distributions of each measure were compiled for each dendritic sample and pooled by group. Raw dendritic spine morphometric values (spine length, head diameter, neck width) were assembled into a scheme used to describe classic spine phenotypes (e.g. mushroom, stubby, etc.). Total spine density was also reported as the sum of the density of all subclasses.
General Observations. […] For adequate study to study comparisons, total spine density data were normalized to % vehicle levels
[formula] Data were then reported as mean+/−SEM of total spine density (% increase from Vehicle).

| SMILES | solubility (in words) [1] | solubility at 1 h ([1]; aqueous buffer, kinetic from dmso stock, kinetic, 100 mM phosphate buffer pH 7.4, 1% DMSO) | Thin Spines (% increase over vehicle) ([2]; 0.1 mg/kg PO daily) | Total Spines (% increase over vehicle) ([2]; 0.1 mg/kg PO daily) | Thin Spines (% increase over vehicle) ([2]; 0.3 mg/kg PO daily) | Total Spines (% increase over vehicle) ([2]; 0.3 mg/kg PO daily) | Thin Spines (% increase over vehicle) ([2]; 1 mg/kg PO daily) | Total Spines (% increase over vehicle) ([2]; 1 mg/kg PO daily) | Thin Spines (% increase over vehicle) ([2]; 3 mg/kg PO daily) | Total Spines (% increase over vehicle) ([2]; 3 mg/kg PO daily) | Thin Spines (% increase over vehicle) ([2]; 10 mg/kg PO daily) | Total Spines (% increase over vehicle) ([2]; 10 mg/kg PO daily) | dendritic spine density (in words, earlier studies) [2] | Thin Spines (% increase over vehicle) ([2]; 6 mg/kg PO daily) | Total Spines (% increase over vehicle) ([2]; 6 mg/kg PO daily) | Thin Spines (% increase over vehicle) ([2]; 20 mg/kg PO daily) | Total Spines (% increase over vehicle) ([2]; 20 mg/kg PO daily) |
| --- | --- | --- | --- | --- | --- | --- | --- | --- | --- | --- | --- | --- | --- | --- | --- | --- | --- |
| COCc1cc2c(cn1)CN(C(=O)Nc1nc(-c3ccc(F)cc3F)ccc1N)C2 [Compound 1] | slightly reduced | 27 µM (≈ 11.1 µg/mL) | 13.8% | 12.2% | 23.2% | 21.3% | 45.1% | 34.6% | 25.3% | 26.7% | 19.9% | 25.1% | increases in dendritic spine density | – | – | – | – |
| Cc1ncc2c(n1)CN(C(=O)Nc1nc(-c3cccs3)ccc1N)C2 [Compound 2] | – | – | 11.3% | 8.1% | – | – | 21.2% | 21.4% | 32.2% | 24.7% | – | – | increases in dendritic spine density | 35.4% | 15% | 37.4% | −0.12% |
